Patent US9926302B2, “Heteroaryl substituted heterocyclyl sulfones” (priority 2014, dated 2018)

Target: T1, Human CaV2.2 channels (Homo sapiens, UniProt Q00975)
T1 construct: expressed in transfected cells
Assay: Fluorescence assay for CaV2.2 channels using potassium depolarization to induce channel opening (FLIPR, Fluo 4)
Assay type: cell-based
Conditions: 3 μM test compound; alternative assay buffer 30 mM KCl (inactivated channel state); HEK293 cells stably expressing human CaV2.2
Excerpt: In the process, the Ca^2+ influx is quantified in the FLIPR assay with the aid of a Ca^2+-sensitive dye (type Fluo-4, Molecular Probes Europe BV, Leiden, the Netherlands) in a fluorescent imaging plate reader (FLIPR 3, Molecular Devices, Sunnyvale, USA), as described hereinafter.
2.1 Fluorescence Assay for CaV2.2 Channels Using Potassium Depolarization to Induce Channel Opening
Human CaV2.2 channels were stably expressed in HEK293 cells together with alpha2-delta and beta subunits of voltage gated calcium channels. In addition, an inwardly rectifying potassium channel (Kir2.3) was stably expressed in these cells to augment control of the cell membrane potential by the concentration of extracellular potassium ions. Raise of the extracellular potassium concentration leads to depolarization of the membrane potential and thus regulates the voltage dependent state of CaV2.2 channels. For preparation, cells were seeded in black poly-D-lysine coated 96-well plates (Becton Dickinson, Biocoat 4640) in 100 μL medium [500 mL DMEM/F-12 plus Glutamax (Invitrogen 31331-093) plus 5.5 mL MEM NEAA 100× (Invitrogen 11140-035) plus 50 mL FBS decomplemented (Invitrogen 10270-106) plus 200 μg/mL Geneticin (Invitrogen 10131-027) plus 50 μg/mL Hygromycin B (Invitrogen 10687-010) plus 2 μg/mL Blasticidin (anti-bl5b Invivo-Gen) plus 0.2 μg/mL Puromycin (A 11138-03)] at a cell density of 30.000 cells per well. Plates were incubated at 37° C. (5% CO2) for 20 to 23 h. On the day of experiment medium was discarded and cells were loaded with Fluo 4 by addition of 100 μL of basic assay buffer (10 mM HEPES, 1 mM KCl, 149 mM NaCl, 0.8 mM CaCl2, 1.7 mM MgCl2, 10 mM Glucose, 0.1% BSA. pH 7.4) containing 2 μM Fluo 4 (Molecular Probes; F-14201), 0.01% pluronic acid (Molecular Probes; P-6866) and 2.5 mM probenecid (Molecular Probes; P36400). Cells were incubated in the dark at 25° C. for 60 min. Then dye containing buffer was discarded and 100 μL basic (1 mM KCl) or alternative (30 mM KCl) assay buffer was added. The alternative assay buffer contained altered concentrations of KCl (30 mM) and NaCl (120 mM) and was used in order to promote the inactivated channel state. After that 25 μL of basic or alternative assay buffer with or without test compound were added and cells were incubated again in the dark at 25° C. for 15 min. Fluorescence intensity was measured on a FLIPR 3 instrument (Molecular Devices Corp., Sunnyvale, Calif.) with excitation at 480 nm and emission at 535 nm. After continuously reading fluorescence for 30 sec, 50 μL of basic assay buffer containing 210 mM KCl (NaCl omitted) were added for depolarization. Peak fluorescent signal intensity was determined and the amplitude of the peak signal, normalized to base line, was used to measure channel inhibition by test compounds.

T1 sequence (P54289 947-1103): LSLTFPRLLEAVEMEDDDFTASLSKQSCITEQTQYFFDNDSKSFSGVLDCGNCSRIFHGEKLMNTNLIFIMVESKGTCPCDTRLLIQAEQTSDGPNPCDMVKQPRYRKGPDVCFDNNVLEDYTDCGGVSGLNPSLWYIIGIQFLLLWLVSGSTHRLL
T1 sequence (P54289 25-946): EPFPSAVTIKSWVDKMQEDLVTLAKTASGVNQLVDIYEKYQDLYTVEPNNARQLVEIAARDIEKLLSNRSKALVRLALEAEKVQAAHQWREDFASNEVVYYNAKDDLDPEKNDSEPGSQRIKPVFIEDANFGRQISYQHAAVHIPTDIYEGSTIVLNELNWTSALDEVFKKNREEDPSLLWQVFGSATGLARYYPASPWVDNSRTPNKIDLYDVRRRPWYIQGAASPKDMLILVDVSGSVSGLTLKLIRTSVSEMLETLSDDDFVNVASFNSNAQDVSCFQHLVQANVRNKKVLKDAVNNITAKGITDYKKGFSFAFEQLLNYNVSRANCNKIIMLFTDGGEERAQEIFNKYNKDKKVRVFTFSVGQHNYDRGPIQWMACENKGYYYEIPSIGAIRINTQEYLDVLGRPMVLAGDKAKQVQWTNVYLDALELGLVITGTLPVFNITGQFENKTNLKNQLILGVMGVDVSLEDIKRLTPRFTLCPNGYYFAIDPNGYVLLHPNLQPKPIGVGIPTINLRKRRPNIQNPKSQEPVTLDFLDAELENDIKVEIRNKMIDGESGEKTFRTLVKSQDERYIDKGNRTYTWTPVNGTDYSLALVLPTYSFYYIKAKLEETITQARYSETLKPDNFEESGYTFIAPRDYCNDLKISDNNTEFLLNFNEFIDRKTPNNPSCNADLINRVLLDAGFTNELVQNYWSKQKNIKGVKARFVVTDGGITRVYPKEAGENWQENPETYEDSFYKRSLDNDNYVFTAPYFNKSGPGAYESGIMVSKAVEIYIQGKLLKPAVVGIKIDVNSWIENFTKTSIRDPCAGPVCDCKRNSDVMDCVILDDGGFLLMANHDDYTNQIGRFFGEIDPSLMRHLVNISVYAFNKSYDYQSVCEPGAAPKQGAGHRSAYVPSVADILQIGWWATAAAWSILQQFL
T1 sequence (P54284 whole entry, further chain): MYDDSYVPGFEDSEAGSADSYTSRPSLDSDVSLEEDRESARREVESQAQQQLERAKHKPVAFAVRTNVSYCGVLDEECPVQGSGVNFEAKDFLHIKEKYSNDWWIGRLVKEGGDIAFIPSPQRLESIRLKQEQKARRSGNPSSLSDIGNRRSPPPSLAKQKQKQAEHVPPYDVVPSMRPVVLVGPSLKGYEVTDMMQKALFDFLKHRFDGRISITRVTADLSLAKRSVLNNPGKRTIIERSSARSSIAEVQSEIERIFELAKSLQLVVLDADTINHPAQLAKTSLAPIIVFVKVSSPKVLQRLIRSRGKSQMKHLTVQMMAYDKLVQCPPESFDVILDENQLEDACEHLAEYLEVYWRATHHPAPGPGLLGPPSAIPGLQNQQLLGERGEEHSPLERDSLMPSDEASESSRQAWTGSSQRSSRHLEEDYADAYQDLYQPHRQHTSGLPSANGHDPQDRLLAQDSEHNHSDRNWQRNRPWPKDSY
T1 sequence (Q00975 whole entry): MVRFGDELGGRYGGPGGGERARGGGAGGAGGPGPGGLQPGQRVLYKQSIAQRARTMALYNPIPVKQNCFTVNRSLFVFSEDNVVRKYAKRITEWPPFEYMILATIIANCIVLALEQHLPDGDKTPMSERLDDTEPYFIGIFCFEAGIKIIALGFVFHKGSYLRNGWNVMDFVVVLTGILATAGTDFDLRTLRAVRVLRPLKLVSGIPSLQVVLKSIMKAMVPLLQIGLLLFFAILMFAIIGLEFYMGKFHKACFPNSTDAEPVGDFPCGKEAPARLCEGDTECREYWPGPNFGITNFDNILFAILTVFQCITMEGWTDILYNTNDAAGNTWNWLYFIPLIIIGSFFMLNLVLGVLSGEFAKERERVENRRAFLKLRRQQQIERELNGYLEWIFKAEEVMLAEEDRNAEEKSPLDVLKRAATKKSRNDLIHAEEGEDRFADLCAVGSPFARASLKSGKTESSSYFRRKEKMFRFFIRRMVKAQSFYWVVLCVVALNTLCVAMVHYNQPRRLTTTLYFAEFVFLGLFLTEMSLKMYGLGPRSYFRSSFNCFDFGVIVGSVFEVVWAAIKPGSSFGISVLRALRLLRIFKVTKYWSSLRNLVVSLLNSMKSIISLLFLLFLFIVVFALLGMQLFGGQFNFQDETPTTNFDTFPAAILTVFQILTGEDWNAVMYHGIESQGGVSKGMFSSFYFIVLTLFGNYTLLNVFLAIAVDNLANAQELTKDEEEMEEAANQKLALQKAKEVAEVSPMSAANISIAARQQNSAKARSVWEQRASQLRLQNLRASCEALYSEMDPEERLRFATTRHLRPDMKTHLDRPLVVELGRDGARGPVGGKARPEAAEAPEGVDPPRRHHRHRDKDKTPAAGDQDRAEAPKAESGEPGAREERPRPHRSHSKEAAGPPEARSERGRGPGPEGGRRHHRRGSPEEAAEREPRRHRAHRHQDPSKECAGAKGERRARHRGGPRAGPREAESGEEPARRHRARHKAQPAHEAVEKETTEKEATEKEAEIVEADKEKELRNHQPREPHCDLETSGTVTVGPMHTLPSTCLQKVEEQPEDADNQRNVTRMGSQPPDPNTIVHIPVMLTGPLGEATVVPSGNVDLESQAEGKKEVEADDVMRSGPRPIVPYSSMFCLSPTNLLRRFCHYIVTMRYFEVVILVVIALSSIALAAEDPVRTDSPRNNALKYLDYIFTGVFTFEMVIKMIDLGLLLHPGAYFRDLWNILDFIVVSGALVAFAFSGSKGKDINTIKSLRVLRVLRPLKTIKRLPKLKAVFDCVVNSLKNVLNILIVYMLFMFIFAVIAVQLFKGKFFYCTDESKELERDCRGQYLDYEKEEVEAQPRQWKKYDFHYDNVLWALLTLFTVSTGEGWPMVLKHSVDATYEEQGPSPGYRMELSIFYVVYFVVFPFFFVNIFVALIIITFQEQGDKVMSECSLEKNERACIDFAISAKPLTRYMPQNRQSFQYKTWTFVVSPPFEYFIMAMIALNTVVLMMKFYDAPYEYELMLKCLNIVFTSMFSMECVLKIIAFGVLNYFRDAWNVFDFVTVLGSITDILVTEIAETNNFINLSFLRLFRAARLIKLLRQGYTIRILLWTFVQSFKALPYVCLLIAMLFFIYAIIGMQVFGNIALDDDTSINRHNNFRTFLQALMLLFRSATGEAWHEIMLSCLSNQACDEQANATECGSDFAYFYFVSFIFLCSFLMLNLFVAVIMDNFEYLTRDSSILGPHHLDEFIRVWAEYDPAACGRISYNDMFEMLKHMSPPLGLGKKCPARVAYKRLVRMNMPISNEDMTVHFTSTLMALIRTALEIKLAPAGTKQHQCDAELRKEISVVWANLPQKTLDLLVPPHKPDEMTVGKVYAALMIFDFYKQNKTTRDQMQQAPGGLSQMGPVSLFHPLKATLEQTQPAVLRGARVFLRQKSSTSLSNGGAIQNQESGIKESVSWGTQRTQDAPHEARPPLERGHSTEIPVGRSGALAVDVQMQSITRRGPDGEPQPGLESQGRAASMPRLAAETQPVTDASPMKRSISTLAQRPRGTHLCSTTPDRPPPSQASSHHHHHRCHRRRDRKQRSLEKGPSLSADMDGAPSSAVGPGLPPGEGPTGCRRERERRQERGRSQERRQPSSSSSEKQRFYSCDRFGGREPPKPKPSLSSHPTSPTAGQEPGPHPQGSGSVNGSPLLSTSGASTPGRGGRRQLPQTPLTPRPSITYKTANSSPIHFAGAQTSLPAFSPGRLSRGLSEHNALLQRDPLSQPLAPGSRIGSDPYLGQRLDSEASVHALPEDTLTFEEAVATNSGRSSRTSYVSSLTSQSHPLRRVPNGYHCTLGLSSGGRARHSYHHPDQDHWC

Row | Structure (SMILES) | Activity Category: %-Inhib (CaV2.2) @3 μM @30 mM KCl
1 | CC1(S(=O)(=O)c2cccc(C(F)(F)F)c2)CCOC(c2nnc(C3CC3)o2)C1 (single isomer, unassigned) [SC-128, 2-Cyclopropyl-5-[4-methyl-4-[[3-(trifluoromethyl)phenyl]sulfonyl]-tetrahydro-pyran-2-yl]-[1,3,4]oxadiazole] | B (%-Inhibition >75% up to ≤95%)
2 | CC1(S(=O)(=O)c2cccc(C(F)(F)F)c2)CCOC(c2ccc(S(C)(=O)=O)nc2)C1 (stereo not shown) [SC-338, 2-Methylsulfonyl-5-[4-methyl-4-[[3-(trifluoromethyl)phenyl]sulfonyl]-tetrahydro-pyran-2-yl]-pyridine] | B (%-Inhibition >75% up to ≤95%)
3 | COc1cc(OC(F)F)c(C2CC(C)(S(=O)(=O)c3cccc(C(F)(F)F)c3)CCO2)cn1 (stereo not shown) [SC-254, 4-(Difluoro-methoxy)-2-methoxy-5-[4-methyl-4-[[3-(trifluoromethyl)phenyl]sulfonyl]-tetrahydro-pyran-2-yl]-pyridine] | A (%-Inhibition >95%)
4 | Cc1cc(S(C)(=O)=O)cnc1C1CC(C)(S(=O)(=O)c2cc(F)cc(C(F)(F)F)c2)CCO1 (stereo not shown) [SC-445, 2-[4-[[3-Fluoro-5-(trifluoromethyl)-phenyl]sulfonyl]-4-methyl-tetrahydro-pyran-2-yl]-3-methyl-5-methylsulfonyl-pyridine] | C (%-Inhibition >40% up to ≤75%)
5 | CC1(S(=O)(=O)c2cccc(C(F)(F)F)c2)CCOC(COc2ccc(C3CC3)nc2)C1 (single isomer, unassigned) [SC-117, 2-Cyclopropyl-5-[[4-methyl-4-[[3-(trifluoromethyl)phenyl]sulfonyl]-tetrahydro-pyran-2-yl]-methoxy]-pyridine] | B (%-Inhibition >75% up to ≤95%)
6 | CCC1(S(=O)(=O)c2cccc(C(F)(F)F)c2)CCOC(c2nnc(C(F)(F)F)o2)C1 (stereo not shown) [SC-241, 2-[4-Ethyl-4-[[3-(trifluoromethyl)phenyl]sulfonyl]-tetrahydro-pyran-2-yl]-5-(trifluoromethyl)-[1,3,4]oxadiazole] | B (%-Inhibition >75% up to ≤95%)
7 | COc1cc(F)c(C2CC(C)(S(=O)(=O)c3cccc(C(F)(F)F)c3)CCO2)cn1 (stereo not shown) [SC-258, 4-Fluoro-2-methoxy-5-[4-methyl-4-[[3-(trifluoromethyl)phenyl]sulfonyl]-tetrahydro-pyran-2-yl]-pyridine] | A (%-Inhibition >95%)
8 | CCC1(S(=O)(=O)c2cccc(C(F)(F)F)c2)CCOC(c2ccc(C(F)(F)F)cn2)C1 (stereo not shown) [SC-109, 2-[4-Ethyl-4-[[3-(trifluoromethyl)phenyl]sulfonyl]-tetrahydro-pyran-2-yl]-5-(trifluoromethyl)-pyridine] | B (%-Inhibition >75% up to ≤95%)
9 | CC1(S(=O)(=O)c2cccc(C(F)(F)F)c2)CCOC(c2cnc(C3CC3)cn2)C1 (stereo not shown) [SC-329, 2-Cyclopropyl-5-[4-methyl-4-[[3-(trifluoromethyl)phenyl]sulfonyl]-tetrahydro-pyran-2-yl]-pyrazine] | A (%-Inhibition >95%)
10 | CC1(S(=O)(=O)c2cccc(C(F)(F)F)c2)CCOC(c2cncc(S(C)(=O)=O)c2)C1 (stereo not shown) [SC-100, 3-Methylsulfonyl-5-[4-methyl-4-[[3-(trifluoromethyl)phenyl]sulfonyl]-tetrahydro-pyran-2-yl]-pyridine] | C (%-Inhibition >40% up to ≤75%)
11 | CC1(S(=O)(=O)c2cccc(C(F)(F)F)c2)CCOC(c2nnc(C(F)F)o2)C1 (single isomer, unassigned) [SC-123, 2-(Difluoro-methyl)-5-[4-methyl-4-[[3-(trifluoromethyl)phenyl]sulfonyl]-tetrahydro-pyran-2-yl]-[1,3,4]oxadiazole] | B (%-Inhibition >75% up to ≤95%)
12 | CCC1(S(=O)(=O)c2cccc(C(F)(F)F)c2)CCOC(c2ccc(C(F)(F)F)cn2)C1 (stereo not shown) [SC-108, 2-[4-Ethyl-4-[[3-(trifluoromethyl)phenyl]sulfonyl]-tetrahydro-pyran-2-yl]-5-(trifluoromethyl)-pyridine] | A (%-Inhibition >95%)
13 | CC1(S(=O)(=O)c2cccc(C(F)(F)F)c2)CCOC(c2nnc(C(F)(F)F)o2)C1 (single isomer, unassigned) [SC-121, 2-[4-Methyl-4-[[3-(trifluoromethyl)phenyl]sulfonyl]-tetrahydro-pyran-2-yl]-5-(trifluoromethyl)-[1,3,4]oxadiazole] | C (%-Inhibition >40% up to ≤75%)
14 | Cn1nc(S(C)(=O)=O)cc1C1CC(C)(S(=O)(=O)c2cccc(C(F)(F)F)c2)CCO1 (stereo not shown) [SC-429, 1-Methyl-3-methylsulfonyl-5-[4-methyl-4-[[3-(trifluoromethyl)phenyl]sulfonyl]-tetrahydro-pyran-2-yl]-1H-pyrazole] | C (%-Inhibition >40% up to ≤75%)

Same assay, conditions: HEK293, 3 μM test compound; alternative assay buffer 30 mM KCl (inactivated channel state); HEK293 cells stably expressing human CaV2.2; read-out: Activity Category: %-Inhib (CaV2.2) @3 μM @30 mM KCl

Row | Structure (SMILES) | inhibition at 3 µM [%]
15 | CC1(S(=O)(=O)c2cccc(C(F)(F)F)c2)CCOC(c2ccc(Cl)cn2)C1 (stereo not shown) [SC-243, 5-Chloro-2-[4-methyl-4-[[3-(trifluoromethyl)phenyl]sulfonyl]-tetrahydro-pyran-2-yl]-pyridine] | > 95
16 | Cn1nc(C(F)(F)F)cc1C1CC(C)(S(=O)(=O)c2cccc(C(F)(F)F)c2)CCO1 (stereo not shown) [SC-343, 1-Methyl-5-[4-methyl-4-[[3-(trifluoromethyl)phenyl]sulfonyl]-tetrahydro-pyran-2-yl]-3-(trifluoromethyl)-1H-pyrazole] | 75 to 95
17 | O=S(=O)(c1cccc(C(F)(F)F)c1)C1CCOC(c2cccc(C(F)(F)F)n2)C1 (stereo not shown) [SC-350, 2-(Trifluoromethyl)-6-[4-[[3-(trifluoromethyl)phenyl]sulfonyl]-tetrahydro-pyran-2-yl]-pyridine] | > 95
18 | COc1cc(OC(F)F)c(C2CC(C)(S(=O)(=O)c3cccc(C(F)(F)F)c3)CCO2)cn1 (stereo not shown) [SC-253, 4-(Difluoro-methoxy)-2-methoxy-5-[4-methyl-4-[[3-(trifluoromethyl)phenyl]sulfonyl]-tetrahydro-pyran-2-yl]-pyridine] | 75 to 95
19 | Cc1cc(S(C)(=O)=O)cnc1C1CC(C)(S(=O)(=O)c2cccc(OC(F)(F)F)c2)CCO1 (racemic) [SC-451, 3-Methyl-5-methylsulfonyl-2-[4-methyl-4-[[3-(trifluoromethyloxy)-phenyl]sulfonyl]-tetrahydro-pyran-2-yl]-pyridine] | 40 to 75
20 | Cc1ccc(OCC2CC(C)(S(=O)(=O)c3cccc(C(F)(F)F)c3)CCO2)cn1 (stereo not shown) [SC-114, 2-Methyl-5-[[4-methyl-4-[[3-(trifluoromethyl)phenyl]sulfonyl]-tetrahydro-pyran-2-yl]-methoxy]-pyridine] | 75 to 95
21 | CCC1(S(=O)(=O)c2cccc(C(F)(F)F)c2)CCOC(c2cccc(C)n2)C1 (racemic) [SC-303, 2-[4-Ethyl-4-[[3-(trifluoromethyl)phenyl]sulfonyl]-tetrahydro-pyran-2-yl]-6-methyl-pyridine] | 75 to 95
22 | CC1(S(=O)(=O)c2cccc(C(F)(F)F)c2)CCOC(c2ncc(OC(F)F)cc2Cl)C1 (stereo not shown) [SC-427, 3-Chloro-5-(difluoro-methoxy)-2-[4-methyl-4-[[3-(trifluoromethyl)phenyl]sulfonyl]-tetrahydro-pyran-2-yl]-pyridine] | > 95
23 | Cn1nc(S(C)(=O)=O)cc1C1CC(C)(S(=O)(=O)c2cccc(C(F)(F)F)c2)CCO1 (racemic) [SC-433, 1-Methyl-3-methylsulfonyl-5-[4-methyl-4-[[3-(trifluoromethyl)phenyl]sulfonyl]-tetrahydro-pyran-2-yl]-1H-pyrazole] | 40 to 75
24 | CC1(S(=O)(=O)c2cccc(C(F)(F)F)c2)CCOC(c2nc(C3CC3)co2)C1 (stereo not shown) [SC-158, 4-Cyclopropyl-2-[4-methyl-4-[[3-(trifluoromethyl)phenyl]sulfonyl]-tetrahydro-pyran-2-yl]-oxazole] | > 95
25 | COCCOc1ccc(C2CC(C)(S(=O)(=O)c3cccc(C(F)(F)F)c3)CCO2)cn1 (stereo not shown) [SC-404, 2-(2-Methoxy-ethoxy)-5-[4-methyl-4-[[3-(trifluoromethyl)phenyl]sulfonyl]-tetrahydro-pyran-2-yl]-pyridine] | 75 to 95
